Source: patent US20020151491A1, “Composition and method for treating the over-production of mucin in diseases such as otitis media using an inhibitor of MUC5AC” (priority 2000, published 2002)

Test system: MUC5AC transcription
Test: MUC5AC promoter-luciferase reporter assay (pMUC5AC3.7luc) in human epithelial cells
Assay type: cell-based
Protocol: The luciferase assay was performed as follows: expression plasmids fp38α(AF) and fp38β(AF) were previously described in Shuto, et al. (2001) Proc. Natl, Acad. Sci. U.S.A. 98, pages 8774-9. The expression plasmids p110, p85α, Akt KD, and Akt WT were provided by D. Stokoe (University of California, San Francisco). The reporter construct MUC5AC contained 3.7-kb 5′-flanking region of the human MUC5AC mucin gene in a luciferase reporter vector pGL3 (Li, et al. 1998, J. Biol. Chem. 273, 68126820). Transient transfections of cells were performed in triplicate with Trans IT-LT1 (Panvera, Madison, WT) following the manufacturer's instructions. Forty-two hours after transfection, the cells were treated with NTHi for 4 h and then harvested for use in the luciferase assay. For experiments with inhibitors, HM3 cells stably transfected with MUC5AC-luciferase plasmid were pretreated with inhibitors for 1-2 h, then treated with NTHi for 4 h and harvested for luciferase assays. Luciferase assays were performed on a Monolight 3010 luminometer for 15 s (Analytical Luminescence, San Diego, Calif.). The NTHi-dependent fold induction was calculated relative to the luciferase light units obtained in the absence of NTHi treatment. The normalized luciferase activity was thus expressed as relative luciferase activity (fold induction).

Row | Compound | effect on NTHi-induced MUC5AC transcription (luciferase activity) (HM3 cells stably transfected with pMUC5AC3.7luc, pretreated with inhibitor 1-2 h, then NTHi SCF 4 h) | effect on NTHi-induced MUC5AC transcription in cells already pretreated with wortmannin (HM3 cells stably transfected with pMUC5AC3.7luc, wortmannin pretreatment first) | effect on MUC5AC transcription induced by LPS from S. typhimurium (LPS pretreated with various concentrations of polymyxin B 10 min at 4° C., HM3 pMUC5AC3.7luc cells, 4 h) | effect on MUC5AC transcription induced by NTHi soluble cytoplasmic fraction (SCF pretreated with various concentrations of polymyxin B for 10 min, HM3 pMUC5AC3.7luc cells)
1 | C[S+]([O-])c1ccc(-c2nc(-c3ccncc3)c(-c3ccc(F)cc3)[nH]2)cc1 (stereo not shown) [SB203580] | inhibited MUC5AC induction in response to NTHi cytoplasmic proteins in a dose-dependent manner | still capable of inhibiting NTHi-induced MUC5AC transcription |  | 
2 | Polymyxin B |  |  | significantly reduced MUC5AC transcription | no significant reduction in NTHi-induced MUC5AC transcription
